Here are results for 37 molecules from ChEMBL document CHEMBL4725392, “Orally Bioavailable Small-Molecule CD73 Inhibitor (OP-5244) Reverses Immunosuppression through Blockade of Adenosine Production” (J Med Chem, 2020).

A value given as a limit tells only on which side of the number the result lay.

In data set [1] the target is T1, 5'-nucleotidase (Homo sapiens, UniProt P21589). Nature of the data set: Inhibition of human C-terminal His6-tagged CD73 expressed in CHO cells preincubated for 15 mins followed by AMP addition and measured after 10 mins by malachite green reagent based assay. In kind it is cell-based.
T1 sequence (P21589 whole entry): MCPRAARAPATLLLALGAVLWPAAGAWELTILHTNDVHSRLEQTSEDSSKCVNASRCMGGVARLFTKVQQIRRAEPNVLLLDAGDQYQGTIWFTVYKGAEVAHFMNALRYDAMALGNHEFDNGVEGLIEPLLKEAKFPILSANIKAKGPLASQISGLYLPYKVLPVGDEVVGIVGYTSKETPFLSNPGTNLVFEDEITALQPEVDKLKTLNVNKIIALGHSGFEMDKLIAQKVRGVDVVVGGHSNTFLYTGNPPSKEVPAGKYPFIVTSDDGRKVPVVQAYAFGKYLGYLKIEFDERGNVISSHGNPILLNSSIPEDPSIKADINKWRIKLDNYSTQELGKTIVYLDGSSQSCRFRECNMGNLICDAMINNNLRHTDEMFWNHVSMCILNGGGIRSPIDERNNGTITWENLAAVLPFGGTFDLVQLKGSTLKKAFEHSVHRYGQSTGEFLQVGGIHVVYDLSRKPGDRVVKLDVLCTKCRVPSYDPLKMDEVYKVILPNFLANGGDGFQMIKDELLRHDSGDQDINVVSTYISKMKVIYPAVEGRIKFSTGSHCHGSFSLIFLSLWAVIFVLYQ
For data set [2], the target named is T1, 5'-nucleotidase. Nature of the data set: Inhibition of CD73 in human NCI-H1568 cells assessed as reduction in AMP-induced ADO expression preincubated for 15 mins followed by AMP addition and measured after 1 hr by LC-MS/MS analysis. In kind it is cell-based.
The target in data set [3] is T2, 5'-nucleotidase (Mus musculus, UniProt Q61503).
T2 sequence (Q61503 whole entry): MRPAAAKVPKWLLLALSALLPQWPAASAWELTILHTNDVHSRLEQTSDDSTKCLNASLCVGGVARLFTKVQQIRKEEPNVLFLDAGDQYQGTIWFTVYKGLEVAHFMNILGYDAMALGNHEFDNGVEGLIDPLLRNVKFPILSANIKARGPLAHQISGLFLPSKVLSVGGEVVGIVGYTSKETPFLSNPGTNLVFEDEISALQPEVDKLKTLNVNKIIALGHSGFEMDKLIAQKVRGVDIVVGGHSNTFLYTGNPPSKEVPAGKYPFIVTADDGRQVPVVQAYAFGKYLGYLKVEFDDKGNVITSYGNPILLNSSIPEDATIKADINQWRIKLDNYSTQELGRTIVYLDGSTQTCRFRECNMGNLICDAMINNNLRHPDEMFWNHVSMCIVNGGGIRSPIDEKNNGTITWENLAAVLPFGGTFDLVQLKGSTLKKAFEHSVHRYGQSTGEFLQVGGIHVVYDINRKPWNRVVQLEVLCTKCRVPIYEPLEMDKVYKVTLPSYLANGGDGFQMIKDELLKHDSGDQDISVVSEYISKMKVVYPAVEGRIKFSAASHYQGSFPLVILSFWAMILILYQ
Nature of the data set: Inhibition of CD73 in mouse EMT6 cells assessed as reduction in AMP-induced ADO expression preincubated for 15 mins followed by AMP addition and measured after 1 hr by LC-MS/MS analysis. In kind it is cell-based.

The nature of data set [4]: AUC infinity in rat at 50 mg/kg, po. The format is ADME, organism-based. Also on record: time infinity, route oral, dose 50 mg/kg. Particulars: in vivo.
Data set [5] in a line: Cmax in rat at 50 mg/kg, po. The format is ADME, organism-based. Details: route oral, dose 50 mg/kg. The following applies: in vivo.
The nature of data set [6]: Terminal half life in rat at 50 mg/kg, po. In kind it is ADME, organism-based. The following applies: in vivo, read-out: beta t1/2 (converted).
Data set [7] in a line: AUC infinity in mouse at 200 mg/kg, po. In kind it is ADME, organism-based. Details: route oral, time infinity, dose 200 mg/kg. Particulars: in vivo.
Data set [8] can be described thus: Cmax in mouse at 200 mg/kg, po. The format is ADME, organism-based. Also on record: route oral, dose 200 mg/kg. The following applies: in vivo.
The nature of data set [9]: Terminal half life in mouse at 200 mg/kg, po. The format is ADME, organism-based. The following applies: in vivo, read-out: beta t1/2 (converted).

What is called IC50 is the concentration that gives 50% inhibition. High values mean lower potency, low ones higher potency. The EC50 is the concentration at which the effect is half-maximal. `Nc1ncnc2c1ncn2[C@@H]1O[C@H](COP(=O)(O)CP(=O)(O)O)[C@@H](O)[C@H]1O` [PHOSPHOMETHYLPHOSPHONIC ACID ADENOSYL ESTER]: inhibition in data set [1] was half-maximal at 2.65 µM (IC50). Moreover, in [2], the EC50 came to 16.3 µM. `C[C@H](Nc1cc(Cl)nc2c1cnn2[C@@H]1O[C@H](COP(=O)(O)CP(=O)(O)O)[C@@H](O)[C@H]1O)c1ccccc1F`: the EC50 in [3] turned out to be 0.198 µM.

Take `O=P(O)(O)C(CO)OC[C@H]1O[C@@H](n2ncc3c(NC4CCCC4)nc(Cl)nc32)[C@H](O)[C@@H]1O` (mixture of isomers): half-maximal inhibition in data set [1] (IC50) was put at 0.0024 µM. Still for that read-out and setting: under `CSCC(C)(OC[C@H]1O[C@@H](n2ncc3c(NC4CCCC4)nc(Cl)nc32)[C@H](O)[C@@H]1O)P(=O)(O)O` (mixture of isomers) stands 0.01 µM. On the same count and under the same terms, under `CC(CCO)(OC[C@H]1O[C@@H](n2ncc3c(NC4CCCC4)nc(Cl)nc32)[C@H](O)[C@@H]1O)P(=O)(O)O` (mixture of isomers) stands 0.031 µM; under `O=P(O)(O)CCOC[C@H]1O[C@@H](n2ncc3c(NCc4ccccc4Cl)nc(Cl)nc32)[C@H](O)[C@@H]1O`, 0.088 µM. Still for that read-out and setting: under `CN(Cc1ccccc1)c1nc(Cl)nc2c1ncn2[C@@H]1O[C@H](COP(=O)(O)CP(=O)(O)O)[C@@H](O)[C@H]1O` stands 0.003 µM; under `CC(CO)(OC[C@H]1O[C@@H](n2ncc3c(NC4CCCC4)nc(Cl)nc32)[C@H](O)[C@@H]1O)P(=O)(O)O` (mixture of isomers), 0.0013 µM; under `O=P(O)(O)CS(=O)(=O)NC[C@H]1O[C@@H](n2ncc3c(NCc4ccccc4Cl)nc(Cl)nc32)[C@H](O)[C@@H]1O`, 0.328 µM.

For `CN(c1nc(Cl)nc2c1nnn2[C@@H]1O[C@H](COP(=O)(O)CP(=O)(O)O)[C@@H](O)[C@H]1O)[C@H]1CCc2ccccc21`, the IC50 in data set [1] amounted to 0.0013 µM. The same measure, in the same setting: as for `CS(=O)(=O)C(OC[C@H]1O[C@@H](n2ncc3c(NC4CCCC4)nc(Cl)nc32)[C@H](O)[C@@H]1O)P(=O)(O)O` (mixture of isomers), the figure is 0.193 µM; as for `CN(c1nc(Cl)nc2c1cnn2[C@@H]1O[C@H](COP(=O)(O)CP(=O)(O)O)[C@@H](O)[C@H]1O)[C@H]1CCc2ccccc21`, 0.00052 µM. As usually defined, the AUC(0-inf) is total exposure, with the tail of the curve extrapolated. The low end stands for low exposure, the high end for high exposure. One may read the Cmax as the highest concentration seen after dosing. Take `O=P(O)(O)CS(=O)(=O)C[C@H]1O[C@@H](n2ncc3c(NCc4ccccc4Cl)nc(Cl)nc32)[C@H](O)[C@@H]1O`: the midpoint of inhibition in data set [1], the IC50, lay at 0.013 µM. The same molecule showed an AUC(0-inf) in data set [4] of 0.54 µM·h. In data set [5], this molecule came in with a Cmax of 0.06 µM. The half-life in [6] was 3 h.

As for `O=P(O)(O)CP(=O)(O)OC[C@H]1O[C@@H](n2nnc3c(NCc4ccccc4Cl)nc(Cl)nc32)[C@H](O)[C@@H]1O`, inhibition in data set [1] was half-maximal at 0.0039 µM (IC50). On the same count and under the same terms, as for `O=P(O)(O)CSC[C@H]1O[C@@H](n2ncc3c(NCc4ccccc4Cl)nc(Cl)nc32)[C@H](O)[C@@H]1O`, the figure is 0.164 µM. Molecule `C[C@@](CO)(OC[C@H]1O[C@@H](n2ncc3c(NC4CCCC4)nc(Cl)nc32)[C@H](O)[C@@H]1O)P(=O)(O)O` showed an IC50 in [1] of 0.00051 µM. Also, the figures for the EC50 in data set [2] and in data set [3] were 0.0069 µM and 0.041 µM, respectively. In [7], the AUC(0-inf) amounted to 54.2 µM·h. Besides, the peak level in data set [8] (Cmax) was 54.9 µM. The half-life in data set [9] is 2.88 h. On to `O=P(O)(O)C(OC[C@H]1O[C@@H](n2ncc3c(NC4CCCC4)nc(Cl)nc32)[C@H](O)[C@@H]1O)C(F)(F)F` (mixture of isomers), for which, in data set [1], it took 0.387 µM to reach half-maximal inhibition (IC50). Same read-out and setting: as for `CN(C)CC(C)(OC[C@H]1O[C@@H](n2ncc3c(NC4CCCC4)nc(Cl)nc32)[C@H](O)[C@@H]1O)P(=O)(O)O` (mixture of isomers), the figure is more than 5 µM; as for `CN(C[C@H]1O[C@@H](n2ncc3c(NCc4ccccc4Cl)nc(Cl)nc32)[C@H](O)[C@@H]1O)C(=O)CP(=O)(O)O`, 0.248 µM.

For `O=P(O)(O)C(CO)(CO)OC[C@H]1O[C@@H](n2ncc3c(NC4CCCC4)nc(Cl)nc32)[C@H](O)[C@@H]1O`, the IC50 in data set [1] was 0.00057 µM. In addition, the values for the EC50 in data set [2] and in [3] were 0.0037 µM and 0.046 µM, respectively. For the same molecule, the AUC(0-inf) in data set [7] is 95.6 µM·h. In data set [8], this molecule showed a Cmax of 67.4 µM. For the same molecule, the half-life in data set [9] was 3.3 h.

Regarding `COCC(CO)(OC[C@H]1O[C@@H](n2ncc3c(NC4CCCC4)nc(Cl)nc32)[C@H](O)[C@@H]1O)P(=O)(O)O` (mixture of isomers), the IC50 in data set [1] came out at 0.00053 µM. As to `COP(=O)(O)CP(=O)(O)OC[C@H]1O[C@@H](n2ncc3c(NCc4ccccc4Cl)nc(Cl)nc32)[C@H](O)[C@@H]1O`, the IC50 in [1] was 0.131 µM. Still for that read-out and setting: under `O=C(O)C(OC[C@H]1O[C@@H](n2ncc3c(NC4CCCC4)nc(Cl)nc32)[C@H](O)[C@@H]1O)P(=O)(O)O` (mixture of isomers) stands 0.108 µM; under `O=P(O)(O)COCC[C@H]1O[C@@H](n2ncc3c(NCc4ccccc4Cl)nc(Cl)nc32)[C@H](O)[C@@H]1O`, 1.2 µM. On the same count and under the same terms, as for `CC(OC[C@H]1O[C@@H](n2ncc3c(NC4CCCC4)nc(Cl)nc32)[C@H](O)[C@@H]1O)P(=O)(O)O` (mixture of isomers), the figure is 0.018 µM. Same read-out and setting: as for `CN(CC(C)(OC[C@H]1O[C@@H](n2ncc3c(NC4CCCC4)nc(Cl)nc32)[C@H](O)[C@@H]1O)P(=O)(O)O)S(C)(=O)=O` (mixture of isomers), the figure is 0.097 µM.

For the molecule `COCC(OC[C@H]1O[C@@H](n2ncc3c(NC4CCCC4)nc(Cl)nc32)[C@H](O)[C@@H]1O)P(=O)(O)O` (mixture of isomers), the IC50 in [1] is 0.00096 µM. `COC[C@@](CO)(OC[C@H]1O[C@@H](n2ncc3c(NC4CCCC4)nc(Cl)nc32)[C@H](O)[C@@H]1O)P(=O)(O)O` showed an IC50 in data set [1] of 0.001 µM. On the same count and under the same terms, under `N#CC(OC[C@H]1O[C@@H](n2ncc3c(NC4CCCC4)nc(Cl)nc32)[C@H](O)[C@@H]1O)P(=O)(O)O` (mixture of isomers) stands 0.559 µM; under `COP(=O)(O)CP(=O)(OC)OC[C@H]1O[C@@H](n2ncc3c(NCc4ccccc4Cl)nc(Cl)nc32)[C@H](O)[C@@H]1O` (some centres undefined), 2.87 µM; under `CC(CS(C)(=O)=O)(OC[C@H]1O[C@@H](n2ncc3c(NC4CCCC4)nc(Cl)nc32)[C@H](O)[C@@H]1O)P(=O)(O)O` (mixture of isomers), 0.023 µM.

Consider `O=P(O)(O)COC[C@H]1O[C@@H](n2ncc3c(NC4CCCC4)nc(Cl)nc32)[C@H](O)[C@@H]1O`, for which, in data set [1], half-maximal inhibition (IC50) required 0.011 µM. In the case of `COP(=O)(CP(=O)(O)O)OC[C@H]1O[C@@H](n2ncc3c(NCc4ccccc4Cl)nc(Cl)nc32)[C@H](O)[C@@H]1O` (some centres undefined), the IC50 in data set [1] was determined as 0.0247 µM.

As for `C[C@](CO)(OC[C@H]1O[C@@H](n2ncc3c(NC4CCCC4)nc(Cl)nc32)[C@H](O)[C@@H]1O)P(=O)(O)O`, in data set [1], the IC50 was 0.0117 µM. `O=P(O)(O)COC[C@H]1O[C@@H](n2ncc3c(NCc4ccccc4Cl)nc(Cl)nc32)[C@H](O)[C@@H]1O` showed an IC50 in [1] of 0.029 µM. In addition, the AUC(0-inf) in data set [4] turned out to be 0.66 µM·h. This molecule also gave a Cmax in [5] of 0.11 µM. For the same molecule, the half-life in [6] is 1.9 h. In data set [1], `O=P(O)(O)C(OC[C@H]1O[C@@H](n2ncc3c(NC4CCCC4)nc(Cl)nc32)[C@H](O)[C@@H]1O)c1nnn[nH]1` (mixture of isomers) returned an IC50 of 0.028 µM. Still for that read-out and setting: under `O=C(CP(=O)(O)O)OC[C@H]1O[C@@H](n2ncc3c(NCc4ccccc4Cl)nc(Cl)nc32)[C@H](O)[C@@H]1O` stands 0.51 µM.
